Consider eight compounds from ChEMBL document CHEMBL1132790, “Synthesis and biological activity of a bivalent nucleotide inhibitor of ribonucleotide reductase” (Bioorg Med Chem Lett, 2000).

One may read the Ki as a dissociation constant, usually derived from enzyme kinetics or from competition with a known ligand. Low readings indicate higher affinity, high ones lower affinity. In general, Km refers to the substrate concentration at which the rate is half of its maximum.

The first experiment is described as follows: (§1) Compound was tested for ribonucleotide reductase (RR) activity by inhibition of dGTP-activated ADP reduction.
In turn, `Nc1ncnc2c1nc(SCCS(=O)(=O)CCCCCCS(=O)(=O)CCSc1nc3c(N)ncnc3n1C1O[C@H](COP(=O)(O)OP(=O)(O)O)[C@@H](O)[C@H]1O)n2C1O[C@H](COP(=O)(O)OP(=O)(O)O)[C@H](O)[C@@H]1O` (stereo partly drawn) returned an inhibition constant (Ki) of 19 µM.

`Nc1nc(O)c2nc(Br)n(C3CC(O)C(COP(=O)(O)OP(=O)(O)OP(=O)(O)O)O3)c2n1` (stereo not drawn) gave a Ki of 56 µM.

Compound `Nc1ncnc2c1nc(Br)n2[C@@H]1O[C@H](COP(=O)(O)OP(=O)(O)O)[C@@H](O)[C@H]1O` gave a Ki of 77 µM.

The compound `C=CS(=O)(=O)CCCCCCS(=O)(=O)CCSc1nc2c(O)nc(N)nc2n1C1C[C@@H](O)[C@H](COP(=O)(O)OP(=O)(O)OP(=O)(O)O)O1` (stereo partly drawn) had an inhibition constant (Ki) of 9 µM.

The compound `Nc1ncnc2c1nc(S)n2C1O[C@@H](COP(=O)(O)OP(=O)(O)O)[C@H](O)[C@@H]1O` (stereo partly drawn) registered a Ki of 158 µM.

For the compound `Nc1nc(O)c2nc(S)n(C3CC(O)C(COP(=O)(O)OP(=O)(O)OP(=O)(O)O)O3)c2n1` (stereo not drawn), the inhibition constant (Ki) was 13 µM.

For the compound `C=CS(=O)(=O)CCCCCCS(=O)(=O)CCSc1nc2c(N)ncnc2n1C1O[C@@H](COP(=O)(O)OP(=O)(O)O)[C@H](O)[C@@H]1O` (stereo partly drawn), the Ki turned out to be 22 µM.

A further experiment can be described thus: as §1.
Consider `Nc1ncnc2c1ncn2[C@@H]1O[C@H](COP(=O)(O)OP(=O)(O)O)[C@@H](O)[C@H]1O`, for which the Km came out at 34 µM.
